Reference: patent publication US7473790B2 (Pfizer Inc., priority 2003, dated 2009)
pIC50: −log10 of the molar value.

The compounds below were run against T1, HCV polymerase (Hepatitis C virus genotype 1b, UniProt P26663) (assay: HCV polymerase primer/template-directed transcription assay (32P-GTP incorporation, filter binding)). Conditions: @ 20 uM compound; given where IC50 was impractical to calculate; read-out: percent inhibition.
T1 construct: 2.5 pmoles (0.15 μg) HCV polymerase protein in a final volume of 75 μL
Type: biochemical
Outline: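 Recombinant genotype 1b polymerase (30 nM) extended biotin-dG12 primer on poly(rC)300 template with 1 μM GTP plus α-32P-GTP, pH 7.2, 10 mM MgCl2, 30 min at 30° C, 1% DMSO final. Products captured on DE filters and counted. IC50 fitted from triplicate cpm, with a tight-binding correction applied below 200 nM.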

T1 sequence (P26663 2420-3010): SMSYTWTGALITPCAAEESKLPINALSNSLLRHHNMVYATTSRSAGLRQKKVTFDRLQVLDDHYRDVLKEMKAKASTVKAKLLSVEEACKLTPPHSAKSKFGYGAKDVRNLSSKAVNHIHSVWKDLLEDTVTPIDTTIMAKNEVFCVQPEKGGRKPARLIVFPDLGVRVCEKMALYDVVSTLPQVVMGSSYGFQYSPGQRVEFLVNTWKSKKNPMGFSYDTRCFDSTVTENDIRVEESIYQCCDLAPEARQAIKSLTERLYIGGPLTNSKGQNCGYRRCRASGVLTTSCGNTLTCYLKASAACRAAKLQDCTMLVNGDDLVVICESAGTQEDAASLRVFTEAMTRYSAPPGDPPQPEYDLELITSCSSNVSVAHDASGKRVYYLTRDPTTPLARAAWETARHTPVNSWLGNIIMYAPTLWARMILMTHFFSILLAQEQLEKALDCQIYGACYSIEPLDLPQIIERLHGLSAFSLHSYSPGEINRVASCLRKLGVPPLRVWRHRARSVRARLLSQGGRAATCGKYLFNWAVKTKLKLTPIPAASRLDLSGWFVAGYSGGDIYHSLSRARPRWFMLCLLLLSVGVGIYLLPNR

| Compound | inhibition at 20 µM |
| --- | --- |
| COc1ccc(CCC2(C3CCCC3)CC(OCc3ccccn3)=CC(=O)O2)cc1Cl (centres unmarked) [G(2), 6-[2-(3-Chloro-4-methoxy-phenyl)-ethyl]-6-cyclopentyl-4-(pyridin-2-ylmethoxy)-5,6-dihydro-pyran-2-one] | 3% |
| CC(C)Oc1ccc(CCC2(C3CCCC3)CC(O)=C(Cc3nc4ccccc4n3C)C(=O)O2)cc1Cl (centres unmarked) [B(27), 6-[2-(3-Chloro-4-isopropoxy-phenyl)-ethyl]-6-cyclopentyl-4-hydroxy-3-(1-methyl-1H-benzoimidazol-2-ylmethyl)-5,6-dihydro-pyran-2-one] | 47% |

Same assay, conditions: recombinant HCV polymerase; 30 minutes at 30° C.; concentration giving 50% inhibition of polymerase-directed transcription; read-out: IC50

| Compound | pIC50 |
| --- | --- |
| CC(C)c1cc(CCC2(C3CCCC3)CC(=O)CC(=O)O2)ccc1O (centres unmarked) [A(93), 6-Cyclopentyl-6-[2-(4-hydroxy-3-isopropyl-phenyl)-ethyl]-dihydro-pyran-2,4-dione] | 6.15 |
| COCc1cc(CCC2(C3CCCC3)CC(O)=C(Cc3nc4nc(C)cc(C)n4n3)C(=O)O2)ccc1O (centres unmarked) [A(192), 6-Cyclopentyl-3-(5,7-dimethyl-[1,2,4]triazolo[1,5-a]pyrimidin-2-ylmethyl)-4-hydroxy-6-[2-(4-hydroxy-3-methoxymethyl-phenyl)-ethyl]-5,6-dihydro-pyran-2-one] | 7.55 |
| COc1ccc(CCC2(C3CCCC3)CC(O)=C(Cc3nc4nc(C)cc(C)n4n3)C(=O)O2)cc1Cl (centres unmarked) [B(13), 6-[2-(3-Chloro-4-methoxy-phenyl)-ethyl]-6-cyclopentyl-3-(5,7-dimethyl-[1,2,4]triazolo[1,5-a]pyrimidin-2-ylmethyl)-dihydro-pyran-2,4-dione] | 7.70 |
| Cc1cc(C)n2nc(CC3=C(O)CC(CCCCC4CCCCC4)(C4CCCC4)OC3=O)nc2n1 (centres unmarked) [B(39), 6-(4-Cyclohexyl-butyl)-6-cyclopentyl-3-(5,7-dimethyl-[1,2,4]triazolo[1,5-a]pyrimidin-2-ylmethyl)-4-hydroxy-5,6-dihydro-pyran-2-one] | 7.54 |
| CC(=O)Nc1ccc(CCC2(C3CCCC3)CC(=O)CC(=O)O2)cc1F (centres unmarked) [A(07), N-{4-[2-(2-Cyclopentyl-4,6-dioxo-tetrahydro-pyran-2-yl)-ethyl]-2-fluoro-phenyl}-acetamide] | 4.87 |
| CC(C)Oc1ccc(CCC2(C3CCCC3)CC(O)=C(Sc3ccc(O)cc3)C(=O)O2)cc1F (centres unmarked) [C(08), 6-Cyclopentyl-6-[2-(3-fluoro-4-isopropoxy-phenyl)-ethyl]-4-hydroxy-3-(4-hydroxy-phenylsulfanyl)-5,6-dihydro-pyran-2-one] | 6.51 |
| CCc1ccc(O)c(CCC2(C3CCCC3)CC(O)=C(Cc3nc4ncc(Cl)cn4n3)C(=O)O2)c1 (single isomer, unassigned; enantiomer 2) [A(172), Enantiomer 2 of 3-(6-Chloro-[1,2,4]triazolo[1,5-a]pyrimidin-2-ylmethyl)-6-cyclopentyl-6-[2-(5-ethyl-2-hydroxy-phenyl)-ethyl]-4-hydroxy-5,6-dihydro-pyran-2-one] | 8.22 |
| COc1ccc(SCC2(C3CCCC3)CC(=O)CC(=O)O2)cc1 (centres unmarked) [A(06), 6-Cyclopentyl-6-(4-methoxy-phenylsulfanylmethyl)-dihydro-pyran-2,4-dione] | 4.63 |
| N#CC1(c2ccc(CCC3(C4CCCC4)CC(=O)C(Cc4nc5ncc(Cl)cn5n4)C(=O)O3)cc2F)CC1 (centres unmarked) [A(115), 1-(4-{2-[5-(6-Chloro-[1,2,4]triazolo[1,5-a]pyrimidin-2-ylmethyl)-2-cyclopentyl-4,6-dioxo-tetrahydro-pyran-2-yl]-ethyl}-2-fluoro-phenyl)-cyclopropanecarbonitrile] | 8.30 |
| CCc1cc(CCC2(C3CCCC3)CC(=O)C(Cc3nc4nc(C)cc(C)n4n3)C(=O)O2)ccc1F (centres unmarked) [B(46), 6-cyclopentyl-3-[(5,7-dimethyl[1,2,4]triazolo[1,5-a]pyrimidin-2-yl)methyl]-6-[2-(3-ethyl-4-fluorophenyl)ethyl]dihydro-2H-pyran-2,4(3H)-dione] | 7.70 |
| CC(C)(C)C1(c2ccc(CCC3(C4CCCC4)CC(=O)CC(=O)O3)cc2)OCCO1 (centres unmarked) [A(34), 6-{2-[4-(2-tert-Butyl-[1,3]dioxolan-2-yl)-phenyl]-ethyl}-6-cyclopentyl-dihydro-pyran-2,4-dione] | 5.00 |
| N#CCC(=O)c1ccc(C#CC2(C3CCCC3)CC(=O)CC(=O)O2)cc1 (centres unmarked) [E(1), 3-[4-(2-Cyclopentyl-4,6-dioxo-tetrahydro-pyran-2-ylethynyl)-phenyl]-3-oxo-propionitrile] | 4.66 |
| Cc1cnc2nc(CC3=C(O)CC(CCc4cc(F)c(C(C)(C)C#N)c(F)c4)(C4CCCC4)OC3=O)nn2c1 (centres unmarked) [A(143), 2-(4-{2-[2-Cyclopentyl-4-hydroxy-5-(6-methyl-[1,2,4]triazolo[1,5-a]pyrimidin-2-ylmethyl)-6-oxo-3,6-dihydro-2H-pyran-2-yl]-ethyl}-2,6-difluoro-phenyl)-2-methyl-propionitrile] | 8.05 |
| CCc1cc(CCC2(C3CCCC3)CC(O)=C(Cc3nc4ncc(Cl)cn4n3)C(=O)O2)ccn1 (centres unmarked) [A(164), 3-(6-Chloro-[1,2,4]triazolo[1,5-a]pyrimidin-2-ylmethyl)-6-cyclopentyl-6-[2-(2-ethyl-pyridin-4-yl)-ethyl]-4-hydroxy-5,6-dihydro-pyran-2-one] | 7.38 |
| O=C1CC(=O)OC(CCc2ccc(OC3CCCCO3)cc2)(C2CCCC2)C1 (centres unmarked) [A(48), 6-Cyclopentyl-6-{2-[4-(tetrahydro-pyran-2-yloxy)-phenyl]-ethyl}-dihydro-pyran-2,4-dione] | 4.48 |
| CCc1cc(CCC2(C3CCCC3)CC(O)=C(Cc3nc4nc(C)cc(C)n4n3)C(=O)O2)cc(Cl)c1O (centres unmarked) [B(100), 6-[2-(3-Chloro-5-ethyl-4-hydroxy-phenyl)-ethyl]-6-cyclopentyl-3-(5,7-dimethyl-[1,2,4]triazolo[1,5-a]pyrimidin-2-ylmethyl)-4-hydroxy-5,6-dihydro-pyran-2-one] | 8.52 |
| CCc1cccc(CCC2(C3CCCC3)CC(O)=C(Cc3nc4nc(C)cc(C)n4n3)C(=O)O2)c1 (single isomer, unassigned) [J(7), 6-Cyclopentyl-3-(5,7-dimethyl-[1,2,4]triazolo[1,5-a]pyrimidin-2-ylmethyl)-6-[2-(3-ethyl-phenyl)-ethyl]-4-hydroxy-5,6-dihydro-pyran-2-one] | 8.00 |
| Cc1cc(C)n2nc(CC3=C(O)CC(CCc4ccc(C5(C#N)CCC5)c(F)c4)(C4CCCC4)OC3=O)nc2n1 (centres unmarked) [A(236), 1-(4-{2-[2-Cyclopentyl-5-(5,7-dimethyl-[1,2,4]triazolo[1,5-a]pyrimidin-2-ylmethyl)-4-hydroxy-6-oxo-3,6-dihydro-2H-pyran-2-yl]-ethyl}-2-fluoro-phenyl)-cyclobutanecarbonitrile] | 8.52 |
| CCc1cccc(CCC2(C3CCCC3)CC(=O)CC(=O)O2)c1 (centres unmarked) [A(66), 6-Cyclopentyl-6-[2-(3-ethyl-phenyl)-ethyl]-dihydro-pyran-2,4-dione] | 5.44 |
| COc1ccc(CCC2(C3CCCC3)CC(O)=C(Cc3nc(C)nn3C)C(=O)O2)cc1Cl (centres unmarked) [B(53), 6-[2-(Chloro-4-methoxyphenyl)ethyl]-6-cyclopentyl-3-[(1,3-dimethyl-1H-1,2,4-triazol-5-yl)methyl]-4-hydroxy-5,6-dihydro-2H-pyran-2-one] | 6.46 |
| C[C@@H](O)c1ccc(CCC2(C3CCCC3)CC(=O)CC(=O)O2)cc1F (some centres unmarked) [B(115), 6-Cyclopentyl-6-{2-[3-fluoro-4-(1-hydroxy-ethyl)-phenyl]-ethyl}-dihydro-pyran-2,4-dione] | 5.48 |
| CC(C)(C#N)c1c(F)cc(CCC2(C3CCCC3)CC(O)=C(Cc3nc4ncc(Cl)cn4n3)C(=O)O2)cc1F (single isomer, unassigned; (-)) [A(260), (−)-2-(4-{2-[5-(6-Chloro-[1,2,4]triazolo[1,5-a]pyrimidin-2-ylmethyl)-2-cyclopentyl-4-hydroxy-6-oxo-3,6-dihydro-2H-pyran-2-yl]-ethyl}-2,6-difluoro-phenyl)-2-methyl-propionitrile] | 8.15 |
| Cc1cc(C)n2nc(SC3=C(O)CC(CCc4ccc(OC(C)C)c(F)c4)(C4CCCC4)OC3=O)nc2n1 (centres unmarked) [C(07), 6-Cyclopentyl-3-(5,7-dimethyl-[1,2,4]triazolo[1,5-a]pyrimidin-2-ylsulfanyl)-6-[2-(3-fluoro-4-isopropoxy-phenyl)-ethyl]-4-hydroxy-5,6-dihydro-pyran-2-one] | 7.72 |
| CCc1cc(CCC2(C3CCCC3)CC(O)=C(Cc3nc4nc(C)cc(C)n4n3)C(=O)O2)ccn1 (centres unmarked) [A(162), 6-Cyclopentyl-3-(5,7-dimethyl-[1,2,4]triazolo[1,5-a]pyrimidin-2-ylmethyl)-6-[2-(2-ethyl-pyridin-4-yl)-ethyl]-4-hydroxy-5,6-dihydro-pyran-2-one] | 8.00 |
| Cc1cnc2nc(CC3=C(O)CC(CCc4ccc(C5(C#N)CC5)c(Cl)c4)(C4CCCC4)OC3=O)nn2c1 (centres unmarked) [B(125), 1-(2-Chloro-4-{2-[2-cyclopentyl-4-hydroxy-5-(6-methyl-[1,2,4]triazolo[1,5-a]pyrimidin-2-ylmethyl)-6-oxo-3,6-dihydro-2H-pyran-2-yl]-ethyl}-phenyl)-cyclopropanecarbonitrile] | 8.40 |
| CC(C)(C#N)c1ccc(CCC2(C3CCCC3)CC(O)=C(Cc3cnc4ncccn34)C(=O)O2)cc1F (centres unmarked) [A(222), 2-(4-{2-[2-cyclopentyl-4-hydroxy-5-(imidazo[1,2-a]pyrimidin-3-ylmethyl)-6-oxo-3,6-dihydro-2H-pyran-2-yl]ethyl}-2-fluorophenyl)-2-methylpropanenitrile] | 6.92 |
| CCc1cc(CCC2(C3CCCC3)CC(O)=C(Cc3nc4ncc(Cl)cn4n3)C(=O)O2)c(F)cc1O (centres unmarked) [A(161), 3-(6-Chloro-[1,2,4]triazolo[1,5-a]pyrimidin-2-ylmethyl)-6-cyclopentyl-6-[2-(5-ethyl-2-fluoro-4-hydroxy-phenyl)-ethyl]-4-hydroxy-5,6-dihydro-pyran-2-one] | 8.10 |
